Reference: the NIST ThermoML archive (doi:10.1016/j.jct.2006.05.007)
± gives the expanded uncertainty stated by the source.

Conditions: Liquid

CC(C)OC(C)C [diisopropyl ether]
Twin ebulliometer
Conditions	vapor or sublimation pressure [kPa]
308.58 K	30.91 ± 0.044
313.25 K	37.26 ± 0.045
318.65 K	45.83 ± 0.046
324.17 K	56.12 ± 0.048
329.4 K	67.49 ± 0.05
334.98 K	81.57 ± 0.053
339.03 K	93.18 ± 0.055
339.73 K	95.31 ± 0.056
340.41 K	97.44 ± 0.056

CC(C)COC(C)(C)C [isobutyl tert-butyl ether]
Ebulliometric method (Recirculating still)
Conditions	vapor or sublimation pressure [kPa]
310.61 K	6.234 ± 0.041
317.06 K	8.426 ± 0.041
322.6 K	10.8 ± 0.041
327.65 K	13.43 ± 0.041
333.13 K	16.83 ± 0.042
338.55 K	20.88 ± 0.042
343.33 K	25.07 ± 0.043
349 K	30.91 ± 0.043
354.26 K	37.26 ± 0.044
360.31 K	45.83 ± 0.045
366.48 K	56.12 ± 0.047
372.35 K	67.49 ± 0.049
378.59 K	81.57 ± 0.051
383.13 K	93.18 ± 0.054
383.92 K	95.31 ± 0.054
384.69 K	97.44 ± 0.055
385.45 K	99.6 ± 0.055

CCOC(C)(C)C [2-ethoxy-2-methylpropane]
Twin ebulliometer
Conditions	vapor or sublimation pressure [kPa]
298.25 K	16.83 ± 0.042
303.13 K	20.88 ± 0.042
307.44 K	25.07 ± 0.043
312.55 K	30.91 ± 0.044
317.29 K	37.26 ± 0.045
322.74 K	45.83 ± 0.046
328.3 K	56.12 ± 0.048
333.56 K	67.49 ± 0.05
339.17 K	81.57 ± 0.053
343.23 K	93.18 ± 0.057
343.89 K	95.31 ± 0.057
344.57 K	97.44 ± 0.057
345.25 K	99.6 ± 0.057
345.92 K	101.69 ± 0.057
